Source: ChEMBL document CHEMBL2016479, “Lead optimization of 4,4-biaryl piperidine amides as γ-secretase inhibitors” (Bioorg Med Chem Lett, 2012)
≈ marks a conversion by molar mass, not a printed value.

What was measured:
[1] = Drug uptake in APP-YAC transgenic mouse brain at 100 mg/kg, po after 6 hrs; format: ADME, organism-based; set-up: dose 100 mg/kg, route oral; settings: read-out: Drug uptake
[2] = Half life in Sprague-Dawley rat at 0.05 mg/kg, iv; format: ADME, organism-based; set-up: dose 0.05 mg/kg, route intravenous; settings: in vivo
[3] = Apparent permeability of the compound; format: ADME; settings: not told
[4] = Solubility of the compound; format: physicochemical
[5] = Ratio of permeability from apical to basolateral side over basolateral to apical side in […] expressing human MDR1; format: ADME, cell-based
[6] = Drug uptake in APP-YAC transgenic mouse plasma at 100 mg/kg, po after 6 hrs; format: ADME, organism-based; set-up: dose 100 mg/kg, route oral
[7] = Volume of distribution at steady state in Sprague-Dawley rat at 0.05 mg/kg, iv; format: ADME, organism-based; set-up: dose 0.05 mg/kg, route intravenous; settings: in vivo, read-out: Vdss
[8] = (§1) AUC in Sprague-Dawley rat at 0.05 mg/kg, iv; format: ADME, organism-based, Plasma; set-up: dose 0.05 mg/kg, route intravenous; settings: Sprague-Dawley, plasma
Gamma-secretase [9] = experiment: Inhibition of gamma-secretase in human SH-SY5Y cells co-expressing APP C-terminal fragment SPA4CT assessed as inhibition of amyloid beta 40 production by electrochemiluminescent assay; format: cell-based
Gamma-secretase [10] = experiment: Inhibition of gamma-secretase in human SH-SY5Y cells co-expressing APP C-terminal fragment SPA4CT assessed as inhibition of amyloid beta 42 production by electrochemiluminescent assay; format: cell-based
[11] = Lipophilicity, log D of the compound; format: physicochemical; settings: octanol/water
Mus musculus = experiment: Anti-Alzheimer's disease activity in APP-YAC transgenic mouse model assessed as reduction in amyloid beta 42 production at 100 mg/kg, po; format: functional
[12] = Plasma clearance in Sprague-Dawley rat at 0.05 mg/kg, iv; format: ADME, organism-based; set-up: dose 0.05 mg/kg, route intravenous
Rattus norvegicus = experiment: as §1; format: ADME, organism-based, Plasma; set-up: dose 0.05 mg/kg, route intravenous; settings: in vivo

IC50 (Gamma-secretase [9]) [µM] | IC50 (Gamma-secretase [10]) [µM] | clearance [12] [L/h/kg] | Compound | further results
0.16 | 0.12 | > 5.04 | Cn1cc(C(=O)N2CCC(c3cc(F)ccc3F)(S(=O)(=O)c3ccc(Cl)cc3)CC2)c(C(F)(F)F)n1 | concentration at 6 h [1]: 0.52 µM; half-life [2]: 2.05 h; Papp [3]: 307 nm/s; solubility [4]: 30.6 µM (≈ 16.8 µg/mL); Ratio [5]: 1.8; concentration at 6 h [6]: 1.78 µM; Vd [7]: 11.3 L; AUC [8]: 230 nM·h; logD [11]: 3.36; inhibition in vivo at 100 mg/kg (Mus musculus): 17%
0.23 | 0.19 | 4.74 | Cn1nc(C(F)(F)F)c(C(=O)N2CCC(c3cc(F)ccc3F)(S(=O)(=O)c3ccc(Cl)cc3)CC2)c1Cl | –
0.27 | 0.08 | > 5.04 | COc1ccc2c(C(=O)N3CCC(c4cc(F)ccc4F)(S(=O)(=O)c4ccc(Cl)cc4)CC3)c[nH]c2c1 | –
0.09 | 0.07 | > 5.04 | COc1ccc2c(C(=O)N3CCC(c4cc(F)ccc4F)(S(=O)(=O)c4ccc(Cl)cc4)CC3)cn(C)c2c1 | –
0.2 | 0.16 | > 5.04 | Cn1ccnc1C(=O)N1CCC(c2cc(F)ccc2F)(S(=O)(=O)c2ccc(Cl)cc2)CC1 | –
0.07 | 0.05 | 4.83 | O=C(c1ncccc1C(F)(F)F)N1CCC(c2cc(F)ccc2F)(S(=O)(=O)c2ccc(Cl)cc2)CC1 | –
0.13 | 0.11 | > 5.04 | O=C(c1cnccc1C(F)(F)F)N1CCC(c2cc(F)ccc2F)(S(=O)(=O)c2ccc(Cl)cc2)CC1 | –
1.09 | 0.97 | – | O=C(c1cnc(Cl)cc1C(F)(F)F)N1CCC(c2cc(F)ccc2F)(S(=O)(=O)c2ccc(Cl)cc2)CC1 | –
> 10 | > 10 | – | O=C(c1cnc(Cl)nc1C(F)(F)F)N1CCC(c2cc(F)ccc2F)(S(=O)(=O)c2ccc(Cl)cc2)CC1 | –
0.26 | 0.21 | 1.91 | O=C(c1ccccc1C(F)(F)F)N1CCC(c2cc(F)ccc2F)(S(=O)(=O)c2ccc(Cl)cc2)CC1 | –
0.4 | 0.42 | – | O=C(CCC(F)(F)F)N1CCC(c2cc(F)ccc2F)(S(=O)(=O)c2ccc(Cl)cc2)CC1 | –
0.08 | 0.09 | > 5.04 | O=C(CC(F)(F)F)N1CCC(c2cc(F)ccc2F)(S(=O)(=O)c2ccc(Cl)cc2)CC1 | –
0.22 | 0.18 | – | O=C(N1CCC(c2cc(F)ccc2F)(S(=O)(=O)c2ccc(Cl)cc2)CC1)C1(C(F)(F)F)CCCCC1 | –
0.14 | 0.11 | > 5.04 | O=C(N1CCC(c2cc(F)ccc2F)(S(=O)(=O)c2ccc(Cl)cc2)CC1)C1(C(F)(F)F)CCCC1 | –
0.07 | 0.06 | 2.77 | O=C(N1CCC(c2cc(F)ccc2F)(S(=O)(=O)c2ccc(Cl)cc2)CC1)C1(C(F)(F)F)CCC1 | –
0.03 | 0.03 | – | O=C(N1CCC(c2cc(F)ccc2F)(S(=O)(=O)c2ccc(Cl)cc2)CC1)C1(C(F)(F)F)CC1 | concentration at 6 h [1]: 1.18 µM; half-life [2]: 3.5 h; Papp [3]: 373 nm/s; solubility [4]: 26.8 µM (≈ 13.6 µg/mL); Ratio [5]: 0.9; concentration at 6 h [6]: 0.65 µM; Vd [7]: 3.1 L; AUC (Rattus norvegicus): 1190 nM·h; logD [11]: 3.76; inhibition in vivo at 100 mg/kg (Mus musculus): 37%
0.1 | 0.05 | > 5.04 | COC(=O)C1(C(=O)N2CCC(c3cc(F)ccc3F)(S(=O)(=O)c3ccc(Cl)cc3)CC2)CC1 | –
0.07 | 0.05 | > 5.04 | CC1(C(=O)N2CCC(c3cc(F)ccc3F)(S(=O)(=O)c3ccc(Cl)cc3)CC2)CC1 | –
0.13 | 0.12 | 4.51 | CC(C)(O)C(=O)N1CCC(c2cc(F)ccc2F)(S(=O)(=O)c2ccc(Cl)cc2)CC1 | –
0.88 | 0.64 | – | CC1(C(=O)N2CCC(c3cc(F)ccc3F)(S(=O)(=O)c3ccc(Cl)cc3)CC2)COC1 | –
0.25 | 0.19 | – | O=C(N1CC[C@](c2cc(F)ccc2F)(S(=O)(=O)c2ccc(Cl)cc2)[C@@H](O)C1)C1(C(F)(F)F)CC1 (racemic) | –
0.04 | 0.04 | – | O=C(N1CC[C@](c2cc(F)ccc2F)(S(=O)(=O)c2ccc(Cl)cc2)[C@H](O)C1)C1(C(F)(F)F)CC1 (racemic) | concentration at 6 h [1]: 7.06 µM; half-life [2]: 1.6 h; Papp [3]: 311 nm/s; solubility [4]: 174 µM (≈ 91.1 µg/mL); Ratio [5]: 1.2; concentration at 6 h [6]: 11.1 µM; Vd [7]: 1.65 L; AUC [8]: 3510 nM·h; logD [11]: 3.27; inhibition in vivo at 100 mg/kg (Mus musculus): 76%
0.09 | 0.09 | – | O=C(N1CC[C@](c2cc(F)ccc2F)(S(=O)(=O)c2ccc(Cl)cc2)[C@@H](O)C1)C1(C(F)(F)F)CC1 (single isomer, unassigned; 11b) | –
1.79 | 2.39 | – | O=C(N1CC[C@](c2cc(F)ccc2F)(S(=O)(=O)c2ccc(Cl)cc2)[C@@H](O)C1)C1(C(F)(F)F)CC1 (single isomer, unassigned; 11c) | –
0.11 | 0.08 | – | O=C(N1CC[C@](c2cc(F)ccc2F)(S(=O)(=O)c2ccc(Cl)cc2)[C@H](O)C1)C1(C(F)(F)F)CC1 (single isomer, unassigned; 12b) | –
0.01 | 0.01 | 0.342 | O=C(N1CC[C@](c2cc(F)ccc2F)(S(=O)(=O)c2ccc(Cl)cc2)[C@H](O)C1)C1(C(F)(F)F)CC1 (single isomer, unassigned; 12c) | –
